Usually IC50 stands for the midpoint of a concentration-inhibition curve.

Structures are written as SMILES. ≈ marks a conversion by molar mass, not a printed value.

Data on 19 compounds can be found in ChEMBL document CHEMBL1687866, “Efficient microwave-assisted synthesis of novel 3-aminohexahydrocoumarin derivatives and evaluation on their cytotoxicity” (Eur J Med Chem, 2011).

Assay [1] is described as follows: Cytotoxicity against human SW1116 cells assessed as cell viability rate at 0.1 ug/ml after 24 hrs by MTT assay. Type of assay: functional, SW 1116. Background: Tetrazolium assays rely on reduction of a dye to a coloured formazan, in cell work by metabolically active cells.
The nature of assay [2]: Cytotoxicity against human SW1116 cells assessed as cell viability rate at 10 ug/ml after 24 hrs by MTT assay. The class given is functional, SW 1116.
The subject of another assay is SGC-7901. The assay can be described thus: Cytotoxicity against human SGC7901 cells after 20 hrs by MTT assay. Type of assay: functional, cell-based. The following applies: SGC-7901, 20 h.
The nature of assay [3]: Cytotoxicity against human SW1116 cells assessed as cell viability rate at 1 ug/ml after 24 hrs by MTT assay. Type of assay: functional, SW 1116.

On to `CC1(C)CC(=O)C2=C(C1)OC(=O)C(NC(=O)c1ccccc1)C2c1ccc(F)cc1` (mixture of isomers), for which the Cell viability turned out to be 95.76% in assay [1], 59.03% in assay [2] and 91.39% in assay [3]. The compound further displayed a half-maximal inhibitory concentration (IC50) in the assay with SGC-7901 of 0.436 µg/mL.

`O=C1CCCC2=C1C(c1ccc([N+](=O)[O-])cc1)C(NC(=O)c1ccccc1)C(=O)O2` (mixture of isomers): the Cell viability in assay [1] turned out to be 73.6%; in assay [2] it was 55.22%; in assay [3], 100.6%. The same compound gave an IC50 in the assay on SGC-7901 of 1.09 µg/mL.

Consider `CC1(C)CC(=O)C2=C(C1)OC(=O)C(NC(=O)c1ccccc1)C2c1ccc(Cl)cc1` (mixture of isomers), for which the Cell viability in assay [1] was 77.19%; in assay [2], 64.34%; in assay [3], 77.81%. Further, the IC50 in the assay with SGC-7901 was above 100 µg/mL.

As to `CC1(C)CC(=O)C2=C(C1)OC(=O)C(NC(=O)c1ccccc1)C2c1ccc([N+](=O)[O-])cc1` (mixture of isomers), the Cell viability in assay [1] was found to be 107.38%; in assay [2], 46.6%; in assay [3], 73.4%. In the assay with SGC-7901, this compound displayed a half-inhibitory concentration (IC50) of 0.905 µg/mL.

Consider `CC1(C)CC(=O)C2=C(C1)OC(=O)C(NC(=O)c1ccccc1)C2c1ccccc1Br` (mixture of isomers), for which the figures for the Cell viability in assay [1], in assay [2] and in assay [3] were 102.11%, 55.74% and 99.3%, respectively. This compound also came in with an IC50 with SGC-7901 of 5.13 µg/mL.

Consider `CC1(C)CC(=O)C2=C(C1)OC(=O)C(NC(=O)c1ccccc1)C2c1ccco1` (stereo not drawn), for which the Cell viability in assay [1] was 79.26%; in assay [2], 42.02%; in assay [3], 67.67%. Also, in the assay with SGC-7901, 0.259 µg/mL (≈ 0.683 µM) corresponded to half-maximal inhibition (IC50).

As for `Cc1ccc(C2C3=C(CC(C)(C)CC3=O)OC(=O)C2NC(=O)c2ccccc2)cc1` (mixture of isomers), the Cell viability came out at 77.88% in assay [1], 82.67% in assay [2] and 83.63% in assay [3]. In the assay with SGC-7901, half-maximal inhibition (IC50) required 2.69 µg/mL.

As to `O=C1CCCC2=C1C(c1cccs1)C(NC(=O)c1ccccc1)C(=O)O2` (mixture of isomers), the Cell viability was found to be 79.97% in assay [1], 69.73% in assay [2] and 81.65% in assay [3]. Moreover, half-maximal inhibition in the assay on SGC-7901 (IC50) required 0.701 µg/mL.

For `COc1cc(C2C3=C(CCCC3=O)OC(=O)C2NC(=O)c2ccccc2)cc(OC)c1OC` (mixture of isomers), the Cell viability was 110.34% in assay [1], 94.07% in assay [2] and 109.73% in assay [3]. This compound yielded an IC50 in the assay on SGC-7901 of 1.21 µg/mL.

Regarding `CC1(C)CC(=O)C2=C(C1)OC(=O)C(NC(=O)c1ccccc1)C2c1cccs1` (mixture of isomers), the Cell viability amounted to 94.51% in assay [1], 50.51% in assay [2] and 104.31% in assay [3]. For the same compound, half-maximal inhibition in the assay on SGC-7901 (IC50) required 0.612 µg/mL.

With `CC1(C)CC(=O)C2=C(C1)OC(=O)C(NC(=O)c1ccccc1)C2c1ccccc1Cl` (mixture of isomers), the Cell viability in assay [1] was found to be 114.23%; in assay [2], 85.08%; in assay [3] it was 97.92%. The same compound gave an IC50 in the assay with SGC-7901 of 0.239 µg/mL.

`O=C1CCCC2=C1C(c1ccccc1Cl)C(NC(=O)c1ccccc1)C(=O)O2` (mixture of isomers): the Cell viability in assay [1] is listed as 109.5%; in assay [2], 87.56%; in assay [3], 102.59%. The same compound had an IC50 in the assay on SGC-7901 of 0.226 µg/mL.

`O=C1CCCC2=C1C(c1ccco1)C(NC(=O)c1ccccc1)C(=O)O2` (mixture of isomers): the figures for the Cell viability in assay [1], in assay [2] and in assay [3] were 95.53%, 74.22% and 97.92%, respectively. Besides, in the assay on SGC-7901, 1.3 µg/mL corresponded to half-maximal inhibition (IC50).

As to `Cc1ccc(C2C3=C(CCCC3=O)OC(=O)C2NC(=O)c2ccccc2)cc1` (mixture of isomers), the Cell viability in assay [1] worked out at 113.97%; in assay [2], 107.87%; in assay [3], 106.66%. This compound also gave a half-inhibitory concentration (IC50) in the assay on SGC-7901 of 1.86 µg/mL.

For the compound `COc1cc(C2C3=C(CC(C)(C)CC3=O)OC(=O)C2NC(=O)c2ccccc2)cc(OC)c1OC` (mixture of isomers), the Cell viability was 91.48% in assay [1], 92.18% in assay [2] and 81.59% in assay [3]. The same compound registered an IC50 in the assay on SGC-7901 of 0.158 µg/mL.

As to `O=C1CCCC2=C1C(c1ccccc1Br)C(NC(=O)c1ccccc1)C(=O)O2` (mixture of isomers), the Cell viability in assay [1] came out at 50.51%; in assay [2], 99.27%; in assay [3] it was 92.19%. Moreover, the concentration for half-maximal inhibition (IC50) with SGC-7901 stood at 3.94 µg/mL.

Turning to `O=C1CCCC2=C1C(c1ccc(Cl)cc1)C(NC(=O)c1ccccc1)C(=O)O2` (mixture of isomers), the Cell viability in assay [1] was found to be 91.48%; in assay [2], 69.78%; in assay [3], 89.77%. Moreover, the IC50 in the assay on SGC-7901 is above 100 µg/mL.

On to `COc1cccc2c1C(=O)c1c(O)c3c(c(O)c1C2=O)C[C@@](O)(C(=O)CO)C[C@@H]3O[C@H]1C[C@H](N)[C@H](O)[C@H](C)O1.Cl` [DOXORUBICIN HYDROCHLORIDE], for which the Cell viability in assay [2] turned out to be 67.34%.

As for `O=C1CCCC2=C1C(c1ccc(F)cc1)C(NC(=O)c1ccccc1)C(=O)O2` (mixture of isomers), the Cell viability in assay [1] is 90.86%; in assay [2], 83.22%; in assay [3] it was 91.07%. Also, the IC50 in the assay with SGC-7901 amounted to 0.812 µg/mL.
